Measurements taken from patent US20080003305A1, “PROCESS AND COMPOSITIONS FOR THE DISINFECTION OF WATERS” (BROMINE COMPOUNDS LIMITED, priority 1991, published 2008).

Columns and labels:
[1] = Residue as Cl2 in domestic waste containing a high concentration of amines; assay type: physicochemical; conditions: 60 ppm
Procedure: (§1) Efficacy of a Series of Biocides in Domestic Waste Containing a High Concentration of Amines
(§2) Incubation temperature: 27° C.
(§3) Stock concentration: 0.2%

[2] = test system: MOs in starch sizing mixture; test: Efficacy of oxidizing and non-oxidizing biocides in a starch sizing mixture (paper industry); assay type: cell-based; conditions: 30 ppm active ingredient, 60° C.; for Surviving MOs after time (hours): 4: 4 hours; for Surviving MOs after time (hours): 28: 28 hours; for Surviving MOs after time (hours): 48: 48 hours; for Surviving MOs after time (hours): 72: 72 hours
Procedure: Efficacy of Oxidizing and Non-Oxidizing Biocides is a Starch Sizing Mixture (Paper Industry)
Efficacy was measured at 60° C.
NH4Br+NaOCl: stock concentration 0.1%.
Dosage: 30 ppm active ingredient.
Incubation temperature 60° C.

fungi = test: Efficacy in domestic waste containing a high concentration of amines: fungi; assay type: cell-based; conditions: 60 ppm; contact time 10 minutes; N as NH3 50mg/l; pH 6.10
Procedure: as §1, §2, §3

aerob. MOs = test: Efficacy in domestic waste containing a high concentration of amines: aerobic MOs; assay type: cell-based; conditions: 60 ppm; contact time 10 minutes; N as NH3 50mg/l; pH 6.10
Procedure: as §1, §2, §3

anaer. MOs = test: Efficacy in domestic waste containing a high concentration of amines: anaerobic MOs; assay type: cell-based; conditions: 60 ppm; contact time 10 minutes; N as NH3 50mg/l; pH 6.10
Procedure: as §1, §2, §3

[3] = test system: total aerobic viable counts; test: Efficacy of oxidizing biocides in water taken from a paper mill (thick stock of pulp slurry); assay type: cell-based; conditions: 15 mg/l as Cl2; 30 minutes
Procedure: Efficacy of Oxidizing Biocides in Water Taken from a Paper Mill (Thick Stock of Pulp Slurry)
Microorganisms were incubated at 37° C. (total aerobic viable counts).
Concentration of stock solution: 0.1% as Cl2.

Pseudomonas sp. = test: Efficacy of biocides in the presence of anti-scale and corrosion inhibiting treatment (CWC); assay type: cell-based; conditions: dose 4 mg/l; pH 9.0; contact time 6 hours
Source text: Efficacy of Biocides in the Presence of Anti-Scale and Corrosion Inhibiting Treatment (CWC)
Stock concentration: 0.5% as Cl2
Efficacy against pseudomonas sp.

[4] = test system: biofilm, slime and algae growth; test: Field experiment, cooling tower 2 (corn processing plant); conditions: BCDMH 1.50-2.26 kg/day daily
Procedure: • Corn processing plant. • Contained volume: 20 m^3 • Circulation rate: 300 m^3/h • pH: 7.5-8.0 • Water temperature: 36° C.-57° C.
This tower was treated with BCDMH (1.50-2.26 kg/day) daily. Due to a very high organic load in the water, growth of biofilm was very fast.

[5] = test system: biofouling and growth of algae; test: Field experiment, cooling tower 1
Procedure: • Cooling tower; contained volume 1000 m^3 • Circulation rate 500 m^3/h • Scale and corrosion inhibitor: CWC: 100 mg/l
The tower was controlled on low level (0.6-1.2 kg/day) of BCDMH feed. Use of BCDMH was effective as long as make-ups were softened in ion-exchangers.
The system was shock-fed with NH4Br+NaOCl. Overall dosage: 75 liters NaOCl (10%) 12.6 kg NH4Br. The mixture was fed during 1.5 hours.
A slug dose of 25 liters NaOCl (10% as Cl2) (+4.2 kg NH4Br) was then fed to the cooling tower once in two to three days. […] A measurable residue of 0.6-0.4 ppm (as total chlorine) was measured in the water 24 and 48 hours after feeding the mixture.

[6] = test system: survivors in water taken from a citrus juice evaporator; test: Efficacy in water taken from a citrus juice evaporator; comparison to non-oxidizing biocides; assay type: cell-based; conditions: dose 30 mg/l
Procedure: Efficacy of NH4Cl+NaOCl in Water Taken from a Citrus Juice Evaporator; Comparison to Non-Oxidizing Biocides
Water demand: higher than 30 ppm of Cl2 (out of 30 ppm Cl2) within 60 minutes.
Concentration of stock solution (NH4Cl+NaOCl): 1000 ppm.
Algicol II is a quaternary ammonium salt.

| Structure (SMILES) | Residue free as Cl2 after 10 minutes ([1]; free) | Residue (total) as Cl2 after 10 minutes ([1]; total) | Surviving MOs after time (hours): 4 [2] | Surviving MOs after time (hours): 28 [2] | Surviving MOs after time (hours): 48 [2] | Surviving MOs after time (hours): 72 [2] | Surviving MOs after 10 minutes fungi (fungi) [cfu/ml] | Surviving MOs after 10 minutes aerob. (aerob. MOs) | Surviving MOs after 10 minutes anaer. (anaer. MOs) | Viable counts after time (minutes): 30 [3] | Survivors in CWC (100 mg/l) (Pseudomonas sp.) | Survivors in buffer (Pseudomonas sp.) | control of daily grown films [4] | efficacy against heavy slimes covering the cooling tower [4] | prevention of biofouling and growth of algae ([5]; BCDMH 4-6 kg/day, CWC (100 mg/l of phosphonate)) | control of the tower ([5]; BCDMH feed 0.6-1.2 kg/day, make-ups softened in ion-exchangers) | Survivors after time (hours): 1 ([6]; 1 hour) | Survivors after time (hours): 24 ([6]; 24 hours) | Survivors after time: 7 days ([6]; 7 days) |
| --- | --- | --- | --- | --- | --- | --- | --- | --- | --- | --- | --- | --- | --- | --- | --- | --- | --- | --- | --- |
| N#CC(Br)(Br)C(N)=O [DBNPA] | 0 (0) | 0 (0) | 3 × 10^4 cfu/ml | 2 × 10^5 cfu/ml | 2 × 10^5 cfu/ml | 1 × 10^5 cfu/ml | 0 | 2 × 10^6 cfu/ml | 5 × 10^5 cfu/ml | 2 × 10^3 cfu/ml | 4 × 10^6 | 0 |  |  |  |  |  |  |  |
| CC1(C)C(=O)N(Cl)C(=O)N1Br [BCDMH] |  |  |  |  |  |  |  |  |  |  | 3 × 10^5 | 0 | effective in controlling the daily grown films | not effective against heavy slimes | did not suffice to prevent biofouling and growth of algae | effective |  |  |  |
| N#CSCSC#N [MBT] |  |  | 9 × 10^4 cfu/ml | 4 × 10^4 cfu/ml | 2 × 10^4 cfu/ml | 2 × 10^4 cfu/ml |  |  |  |  |  |  |  |  |  |  | 1 × 10^6 cfu/ml | 1 × 10^3 cfu/ml | 8 × 10^2 cfu/ml |
